Measured values reported in ChEMBL document CHEMBL4814027, “Synthesis and biological evaluation of naphthoquinone phenacylimidazolium derivatives” (Bioorg Med Chem Lett, 2021).
The source made the active and inactive calls. No cut-off for these calls is given here.

What was measured:
[1] = test system: MCF7; assay: Induction of cell cycle arrest in human MCF7 cells assessed as accumulation at S phase at 0.1 uM after 48 hrs by flow cytometric analysis (reference value: 24.4 %); format: functional
[2] = test system: MCF7; assay: Induction of apoptosis in human MCF7 cells assessed as inhibition of survivin protein expression at 0.02 to 0.2 uM by Western blotting analysis; format: functional, cell-based; conditions: dose 0.02-0.2 µM
[3] = test system: MCF7; assay: Induction of apoptosis in human MCF7 cells assessed as viable cells at 0.2 uM after 48 hrs by Annexin V/PI staining based flow cytometric analysis (reference value: 93.7 %); format: functional; conditions: read-out: Activity
[4] = test system: MCF7; assay: Induction of apoptosis in human MCF7 cells assessed as early apoptotic cells at 0.1 uM after 48 hrs by Annexin V/PI staining based flow cytometric analysis (reference value: 5.05 %); format: functional
[5] = Selectivity ratio of IC50 for mouse L929 cells to IC50 for human A549 cells; format: toxicity; conditions: L929 cells versus A549 cells, read-out: Ratio IC50
[6] = test system: MCF7; assay: Induction of cell cycle arrest in human MCF7 cells assessed as accumulation at G0/G1 phase at 0.1 uM after 48 hrs by flow cytometric analysis (reference value: 66.6 %); format: functional
[7] = test system: MCF7; assay: Induction of cell cycle arrest in human MCF7 cells assessed as accumulation at G2/M phase at 0.02 uM after 48 hrs by flow cytometric analysis (reference value: 8.7 %); format: functional
[8] = test system: MCF7; assay: Induction of apoptosis in human MCF7 cells assessed as late apoptotic cells at 0.2 uM after 48 hrs by Annexin V/PI staining based flow cytometric analysis (reference value: 1.23 %); format: functional
[9] = Selectivity ratio of IC50 for mouse L929 cells to IC50 for human MCF7 cells; format: toxicity; conditions: L929 cells versus MCF7 cells, read-out: Ratio IC50
[10] = test system: MCF7; assay: Induction of apoptosis in human MCF7 cells assessed as viable cells at 0.1 uM after 48 hrs by Annexin V/PI staining based flow cytometric analysis (reference value: 93.7 %); format: functional; conditions: read-out: Activity
[11] = test system: MCF7; assay: Cytotoxicity against human MCF7 cells by MTT assay; format: functional, cell-based
[12] = test system: MCF7; assay: Induction of apoptosis in human MCF7 cells assessed as early apoptotic cells at 0.2 uM after 48 hrs by Annexin V/PI staining based flow cytometric analysis (reference value: 5.05 %); format: functional
[13] = test system: MCF7; assay: Induction of apoptosis in human MCF7 cells assessed as necrotic cells at 0.02 uM after 48 hrs by Annexin V/PI staining based flow cytometric analysis (reference value: 0.017 %); format: functional
[14] = test system: L929; assay: Cytotoxicity against mouse L929 cells by MTT assay
[15] = test system: MCF7; assay: Induction of cell cycle arrest in human MCF7 cells assessed as accumulation at G0/G1 phase at 0.2 uM after 48 hrs by flow cytometric analysis (reference value: 66.6 %); format: functional
[16] = test system: MCF7; assay: Induction of apoptosis in human MCF7 cells assessed as early apoptotic cells at 0.02 uM after 48 hrs by Annexin V/PI staining based flow cytometric analysis (reference value: 5.05 %); format: functional
[17] = Selectivity ratio of IC50 for mouse L929 cells to IC50 for human HeLa cells; format: toxicity; conditions: L929 cells versus HeLa cells, read-out: Ratio IC50
[18] = test system: MCF7; assay: Induction of apoptosis in human MCF7 cells assessed as necrotic cells at 0.2 uM after 48 hrs by Annexin V/PI staining based flow cytometric analysis (reference value: 0.017 %); format: functional
[19] = test system: HeLa; assay: Cytotoxicity against human HeLa cells by MTT assay; format: functional, cell-based
[20] = test system: MCF7; assay: Induction of cell cycle arrest in human MCF7 cells assessed as accumulation at S phase at 0.02 uM after 48 hrs by flow cytometric analysis (reference value: 24.4 %); format: functional
[21] = test system: MCF7; assay: Induction of cell cycle arrest in human MCF7 cells assessed as accumulation at S phase at 0.2 uM after 48 hrs by flow cytometric analysis (reference value: 24.4 %); format: functional
[22] = test system: MCF7; assay: Induction of apoptosis in human MCF7 cells assessed as viable cells at 0.02 uM after 48 hrs by Annexin V/PI staining based flow cytometric analysis (reference value: 93.7 %); format: functional; conditions: read-out: Activity
[23] = test system: MCF7; assay: Induction of cell cycle arrest in human MCF7 cells assessed as accumulation at G2/M phase at 0.1 uM after 48 hrs by flow cytometric analysis (reference value: 8.7 %); format: functional
[24] = test system: MCF7; assay: Induction of apoptosis in human MCF7 cells assessed as late apoptotic cells at 0.1 uM after 48 hrs by Annexin V/PI staining based flow cytometric analysis (reference value: 1.23 %); format: functional
[25] = test system: MCF7; assay: Induction of cell cycle arrest in human MCF7 cells assessed as accumulation at G2/M phase at 0.2 uM after 48 hrs by flow cytometric analysis (reference value: 8.7 %); format: functional
[26] = test system: MCF7; assay: Induction of apoptosis in human MCF7 cells assessed as increase in cleaved caspase 3 protein expression at 0.02 uM by Western blotting analysis; format: functional, cell-based
[27] = test system: A549; assay: Cytotoxicity against human A549 cells by MTT assay
[28] = test system: MCF7; assay: Induction of apoptosis in human MCF7 cells assessed as late apoptotic cells at 0.02 uM after 48 hrs by Annexin V/PI staining based flow cytometric analysis (reference value: 1.23 %); format: functional
[29] = test system: MCF7; assay: Induction of apoptosis in human MCF7 cells assessed as necrotic cells at 0.1 uM after 48 hrs by Annexin V/PI staining based flow cytometric analysis (reference value: 0.017 %); format: functional
[30] = test system: MCF7; assay: Induction of cell cycle arrest in human MCF7 cells assessed as accumulation at G0/G1 phase at 0.02 uM after 48 hrs by flow cytometric analysis (reference value: 66.6 %); format: functional

CC(C)Cn1c[n+](CC(=O)c2cccs2)c2c1C(=O)c1ccccc1C2=O.[Br-]
Activity [1]: 35.6% | Activity [2]: Active | viability at 0.2 µM [3]: 7.84% | Activity [4]: 69.2% | selectivity ratio [5]: 61 | Activity [6]: 52.5% | Activity [7]: 13.1% | Activity [8]: 7.77% | selectivity ratio [9]: 256 | viability at 0.1 µM [10]: 26% | IC50 [11]: 50 nM | Activity [12]: 83.4% | Activity [13]: 0.33% | IC50 [14]: 12800 nM | Activity [15]: 46.2% | Activity [16]: 46% | selectivity ratio [17]: 21.3 | Activity [18]: 0.98% | IC50 [19]: 600 nM | Activity [20]: 30.1% | Activity [21]: 43.7% | viability at 0.02 µM [22]: 47.6% | Activity [23]: 11.4% | Activity [24]: 4.44% | Activity [25]: 10% | Activity [26]: Active | IC50 [27]: 210 nM | Activity [28]: 6.12% | Activity [29]: 0.42% | Activity [30]: 56.6%
